# Laboratory results: article PMC7617869, “Molecular glues that inhibit deubiquitylase activity and inflammatory signaling” (Nature Structural & Molecular Biology, 2025)
# Values joined by “and” are separate entries in the source; they are usually repeats but may differ in a detail not shown here. Equal entries are not always repeated.
# How the values were obtained:
# BRISC = biological target: T1, BRISC (Homo sapiens, UniProt P46736+Q15018+Q9NXR7); experiment: Michaelis–Menten analysis of BRISC inhibition; assay type: biochemical
# T1 construct: made in house; host or cells: Spodoptera frugiperda (Sf9) insect cells, MultiBac
# Description: IQF assays were performed in DUB reaction buffer containing 50 mM HEPES–NaOH pH 7.0, 100 mM NaCl, 0.1 mg ml^−1 BSA, 1 mM DTT and 0.03% v/v Brij-35. […] The final concentration of BRISC WT, all BRISC mutants, HsBRISCΔLoop, MmBRISC and DrBRISCΔNΔC was 1 nM. Other enzymes were tested at the following concentrations: 5 nM ARISC (FL), 10 nM CfBRISCΔNΔC, 250 nM AMSH* (ref. [43]), 500 nM USP2 and 1 μM trypsin (Sigma, 9002-07-7). For Michaelis–Menten experiments, 1 nM BRISC with 0–1 μM IQF K63-linked diubiquitin substrate was used. Michaelis–Menten analyses and Lineweaver–Burk plots were calculated using GraphPad Prism (version 9.0).
# [1] = test system: ISRE in THP-1 cells (TLR9 agonist ODN 2216); experiment: THP-1 ISRE luciferase reporter, ODN 2216 stimulation; assay type: cell-based, human; conditions: ODN 2216 1 µM, 4 μM compound, 16 h
# Description: THP-1 in vitro experiments
# THP-1-DualTM cells (InvivoGen), derived from a human monocytic cell line, isolated from a patient with acute monocytic leukaemia, were cultured as per manufacturer’s guidance. Cells were seeded at 1x10^6 cells/mL in RPMI1640 media containing 10% fetal bovine serum (FBS), 1% penicillin-streptomycin (PS) (Gibco Laboratories) with DMSO (0.1%) (control) or in media containing JMS-175- […]
# ng/mL) (Merck Life Science), ODN 2216 (1 µM) (Miltenyi Biotec), or Poly:IC (1 µg/mL) (InvivoGen).
# Tofacitinib (Cambridge Biosciences) at 0.4 µM was used for comparison against a known JAK inhibitor.
# Cells were centrifuged at 300 g for 5 minutes. Supernatant was removed and subjected to simultaneous study of the NF -κB pathway, by monitoring the activity of secreted alkaline phosphatase reporter (SEAP), and the IRF pathway, by assessing the activity o f a secreted Lucia luciferase using QUANTI - Blue ™ Solution and QUANTI -Luc™ 4 Lucia/Gaussia (InvivoGen), respectively, as per manufacturer’s instructions. Pelleted cells were used for FACS analysis using IFNα/β R1 APC-conjugated antibody or isotype control (Biotechne, FAB245A and IC002A), or unstained staining procedure with and without Zombie GreenTM (Biolegend). Samples were analysed using CytoFlex LX (Beckman) (50,000 live cells per condition). Median fluorescence intensity for APC channel gated on single cell live cells was analysed and compared as a percentage to control (no stimulation condition). […]
# BRISC (FL) / BRISCΔNΔC = biological target: T2, BRISC (FL) / BRISCΔNΔC (Homo sapiens, UniProt P46736+Q15018+Q9NXR7); experiment: Mass photometry of BRISC dimer formation; conditions: for Dimer fraction: 50 nM BRISCΔNΔC
# T2 construct: BRISCΔNΔC (MERIT40ΔN, Abraxas 2ΔC); made in house; host or cells: Spodoptera frugiperda Sf9 insect cells (MultiBac)
# Description: Immediately before mass photometry measurement, the BRISC–inhibitor mix was diluted in 25 mM HEPES pH 7.5, 150 mM NaCl and 1 mM TCEP to 10 nM BRISC ([…]). Then, 12 μl of the diluted sample was used for the final mass photometry measurement, following autofocus stabilization. […] Next, 0.5 μl of inhibitor was mixed with 19.5 μl of 50 nM BRISCΔNΔC (2.5% v/v DMSO) and incubated at room temperature for 15 min. The BRISC–inhibitor mix was used directly for mass photometry measurement using buffer-free autofocus stabilization.
# Microscope coverslips were prepared according to an established protocol. Experiments were performed using a OneMP mass photometer (Refeyn). Videos were recorded for 60 s using AcquireMP (Refeyn) and processed using DiscoverMP (Refeyn). Mass photometry image processing was previously described. Briefly, contrast-to-mass (C2M) calibration was performed using protein standards (66–669 kDa) diluted in buffer (25 mM HEPES pH 7.5, 150 mM NaCl and 1 mM TCEP). […] The mass distribution from each run was in the form of a histogram, where the count refers to each landing event and a Gaussian sum is fitted to the data. The relative amount of each species was calculated as the area of each Gaussian, where σ refers to the s.d. of the fitted Gaussian. The dimer fraction refers to the percentage of the total counts corresponding to the 564-kDa BRISCΔNΔC dimer complex. Curves and half-maximal effective concentration values were fitted and calculated using the GraphPad Prism (version 9.0) built-in dose–response equation for concentration of agonist versus response (variable slope).
structure (smiles),measurement,setting,value
O=C(NC1C2CNCC21)c1nn(C(=O)c2c(Cl)cccc2Cl)cc1NC(=O)c1c(Cl)cccc1Cl (stereo not drawn) [FX-171-C],Initial velocity (FU/min),"BRISC; di-Ub-TAMRA 31.2 nM, inhibitor 48 nM",121.5 FU/min and 126.3 FU/min and 146.6 FU/min
same,Initial velocity (FU/min),"BRISC; di-Ub-TAMRA 31.2 nM, inhibitor 195 nM",104.4 FU/min and 118.9 FU/min and 118.7 FU/min
same,Initial velocity (FU/min),"BRISC; di-Ub-TAMRA 31.2 nM, inhibitor 781 nM",76.24 FU/min and 88.16 FU/min and 98.75 FU/min
same,Initial velocity (FU/min),"BRISC; di-Ub-TAMRA 31.2 nM, inhibitor 3.12 μM",58.53 FU/min and 46.27 FU/min and 64.26 FU/min
same,Initial velocity (FU/min),"BRISC; di-Ub-TAMRA 31.2 nM, inhibitor 12.5 μM",38.22 FU/min and 44.65 FU/min and 65.69 FU/min
same,Initial velocity (FU/min),"BRISC; di-Ub-TAMRA 62.5 nM, inhibitor 48 nM",182.7 FU/min and 137.5 FU/min and 123.2 FU/min
same,Initial velocity (FU/min),"BRISC; di-Ub-TAMRA 62.5 nM, inhibitor 195 nM",166.2 FU/min and 105.9 FU/min and 106.4 FU/min
same,Initial velocity (FU/min),"BRISC; di-Ub-TAMRA 62.5 nM, inhibitor 781 nM",126.7 FU/min and 95.78 FU/min and 99.98 FU/min
same,Initial velocity (FU/min),"BRISC; di-Ub-TAMRA 62.5 nM, inhibitor 3.12 μM",70.11 FU/min and 76.58 FU/min and 69.67 FU/min
same,Initial velocity (FU/min),"BRISC; di-Ub-TAMRA 62.5 nM, inhibitor 12.5 μM",34.93 FU/min and 52.19 FU/min and 58.9 FU/min
same,Initial velocity (FU/min),"BRISC; di-Ub-TAMRA 62.5 nM, inhibitor 50 μM",28.22 FU/min and 40.49 FU/min and 46.74 FU/min
same,Initial velocity (FU/min),"BRISC; di-Ub-TAMRA 125 nM, inhibitor 48 nM",467.2 FU/min and 386.6 FU/min and 434.5 FU/min
same,Initial velocity (FU/min),"BRISC; di-Ub-TAMRA 125 nM, inhibitor 195 nM",414.6 FU/min and 331.3 FU/min and 418.4 FU/min
same,Initial velocity (FU/min),"BRISC; di-Ub-TAMRA 125 nM, inhibitor 781 nM",304.6 FU/min and 276.4 FU/min and 303.4 FU/min
same,Initial velocity (FU/min),"BRISC; di-Ub-TAMRA 125 nM, inhibitor 3.12 μM",173.8 FU/min and 175.1 FU/min and 170.4 FU/min
same,Initial velocity (FU/min),"BRISC; di-Ub-TAMRA 125 nM, inhibitor 12.5 μM",92.02 FU/min and 100.3 FU/min and 111.4 FU/min
same,Initial velocity (FU/min),"BRISC; di-Ub-TAMRA 125 nM, inhibitor 50 μM",36.3 FU/min and 46.67 FU/min and 63.46 FU/min
same,Initial velocity (FU/min),"BRISC; di-Ub-TAMRA 250 nM, inhibitor 48 nM",794.1 FU/min and 722.2 FU/min and 770.5 FU/min
same,Initial velocity (FU/min),"BRISC; di-Ub-TAMRA 250 nM, inhibitor 195 nM",732.8 FU/min and 688 FU/min and 641.2 FU/min
same,Initial velocity (FU/min),"BRISC; di-Ub-TAMRA 250 nM, inhibitor 781 nM",548.6 FU/min and 487.2 FU/min and 518.3 FU/min
same,Initial velocity (FU/min),"BRISC; di-Ub-TAMRA 250 nM, inhibitor 3.12 μM",309.4 FU/min and 322.6 FU/min and 305.6 FU/min
same,Initial velocity (FU/min),"BRISC; di-Ub-TAMRA 250 nM, inhibitor 12.5 μM",178.9 FU/min and 174 FU/min and 179.5 FU/min
same,Initial velocity (FU/min),"BRISC; di-Ub-TAMRA 250 nM, inhibitor 50 μM",67.25 FU/min and 84.89 FU/min and 62.1 FU/min
same,Initial velocity (FU/min),"BRISC; di-Ub-TAMRA 500 nM, inhibitor 48 nM",1729 FU/min and 1553 FU/min and 1273 FU/min
same,Initial velocity (FU/min),"BRISC; di-Ub-TAMRA 500 nM, inhibitor 195 nM",1442 FU/min and 1370 FU/min and 1434 FU/min
same,Initial velocity (FU/min),"BRISC; di-Ub-TAMRA 500 nM, inhibitor 781 nM",1085 FU/min and 985.1 FU/min and 1129 FU/min
same,Initial velocity (FU/min),"BRISC; di-Ub-TAMRA 500 nM, inhibitor 3.12 μM",624.9 FU/min and 642.2 FU/min and 551.1 FU/min
same,Initial velocity (FU/min),"BRISC; di-Ub-TAMRA 500 nM, inhibitor 12.5 μM",332.6 FU/min and 297.9 FU/min and 255.2 FU/min
same,Initial velocity (FU/min),"BRISC; di-Ub-TAMRA 500 nM, inhibitor 50 μM",109.3 FU/min and 143.3 FU/min and 196.9 FU/min
same,Initial velocity (FU/min),"BRISC; di-Ub-TAMRA 1000 nM, inhibitor 48 nM",2734 FU/min and 2460 FU/min and 2836 FU/min
same,Initial velocity (FU/min),"BRISC; di-Ub-TAMRA 1000 nM, inhibitor 195 nM",2231 FU/min and 2296 FU/min and 2566 FU/min
same,Initial velocity (FU/min),"BRISC; di-Ub-TAMRA 1000 nM, inhibitor 781 nM",1629 FU/min and 1647 FU/min and 1858 FU/min
same,Initial velocity (FU/min),"BRISC; di-Ub-TAMRA 1000 nM, inhibitor 3.12 μM",1134 FU/min
same,Initial velocity (FU/min),"BRISC; di-Ub-TAMRA 1000 nM, inhibitor 50 μM",213.3 FU/min and 360.7 FU/min and 415.9 FU/min
same,mode of inhibition,BRISC; enzyme activity at different substrate concentrations,not competitive inhibitors
same,ISRE luciferase signal in THP-1 supernatant,[1],149.667 and 263.333 and 287.667
same,dimer formation with increasing inhibitor concentration (mass photometry),BRISC (FL) / BRISCΔNΔC,dose-dependent increase in dimer formation
same,Dimer fraction,BRISC (FL) / BRISCΔNΔC; [Inhibitor (μM)] 2500,0.36 and 0.38 and 0.35
same,Dimer fraction,BRISC (FL) / BRISCΔNΔC; [Inhibitor (μM)] 10000,0.31 and 0.43 and 0.4
